The text below walks through data of patent US12492202B2, “Macrocyclic PAD4 inhibitors useful as immunosuppressant” (BRISTOL-MYERS SQUIBB COMPANY, priority 2020, dated 2025).

For the assay, the target named is human PAD4 (hPAD4) (Homo sapiens (Human), UniProt Q9UM07). The assay is described as follows: RFMS Human PAD4 Functional Assay. Particulars: rapid-fire mass spectrum (RFMS) assay; 5 nM hPAD4 enzyme, 250 μM BAEE, 30 min preincubation at 37° C. The format is biochemical.

A word on the IC50: it is the concentration needed to halve the response being measured. A higher IC50 goes with weaker potency in that assay.

Chain of human PAD4 (hPAD4) (Q9UM07 whole entry): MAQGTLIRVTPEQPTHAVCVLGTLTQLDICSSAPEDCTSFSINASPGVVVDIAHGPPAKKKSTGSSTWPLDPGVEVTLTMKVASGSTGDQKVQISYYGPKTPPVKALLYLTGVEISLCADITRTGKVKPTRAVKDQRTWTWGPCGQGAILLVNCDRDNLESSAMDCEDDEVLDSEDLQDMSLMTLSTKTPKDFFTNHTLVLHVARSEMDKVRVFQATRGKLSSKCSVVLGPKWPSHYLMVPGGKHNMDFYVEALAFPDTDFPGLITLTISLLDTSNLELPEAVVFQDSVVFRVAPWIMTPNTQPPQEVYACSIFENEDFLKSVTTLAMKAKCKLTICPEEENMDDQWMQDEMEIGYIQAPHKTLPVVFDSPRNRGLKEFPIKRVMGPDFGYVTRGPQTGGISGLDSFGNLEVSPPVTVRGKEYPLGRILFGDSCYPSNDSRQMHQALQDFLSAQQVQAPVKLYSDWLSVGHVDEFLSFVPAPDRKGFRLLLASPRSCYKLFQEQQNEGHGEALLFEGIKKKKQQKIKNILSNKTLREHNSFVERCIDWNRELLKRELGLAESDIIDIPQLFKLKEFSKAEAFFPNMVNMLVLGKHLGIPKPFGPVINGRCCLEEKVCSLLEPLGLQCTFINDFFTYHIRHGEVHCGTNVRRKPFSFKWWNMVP
Description: RFMS Human PAD4 Functional Assay: Compounds were solubilized in 100% DMSO to achieve a 10 mM compound concentration. Compound stock solutions were stored at RT. A series of dilutions were prepared in DMSO and mixed 8 times with 20 μL mixing volume. Final top concentration of compound in the assay is 50 μM. Final assay conditions were as follows: • Reaction volume: 26 μl • Assay buffer: 25 mM hepes, pH 7.5, 5 mM NaCl, 1 mM DTT, 0.2 mg/ml BSA, 0.01% CHAPS, 50 μM Calcium, and 5 μM TPEN • Final concentrations: 5 nM hPAD4 enzyme, 250 μM BAEE, and 0.5% DMSO • Total incubation time: 30 mins compound and enzyme preincubation at 37° C., 90 min enzyme/substrate reaction, 30 min reaction with phenyl glyoxal at 37° C. • Stop solution: 40 μl 5% TCA in ACN 0.13 μL of compound solution was added to 13 μL of 10 nM PAD4 in assay buffer. After 30 min 13 μl of 500 μM of BAEE was added in 25 mM hepes, pH 7.5, 5 mM NaCl, 1 mM DTT, 0.2 mg/ml BSA, 0.01% CHAPS, 50 μM Calcium, 5 μM TPEN was added and the reaction incubated for 90 min at 37° C. The enzymatic reaction was quenched by addition of 15 μl of 6.1N TCA, 100% Final Concentration is 20%, 35 μl of 8.5 mM phenyl glyoxal (final concentration 4 mM) is then added and the reaction is incubated for 30 min at 37° C. After 30 minutes the plates are spun down to remove all precipitate. The enzyme reaction was quenched with an equal volume of methanol containing internal standard (modified citrulline). Samples were loaded onto the Rapid Fire RF300 system (Agilent) wherein they were first sipped for 1000 ms and then directly loaded to a C18 separations cartridge using a mixture of acetonitrile containing 0.01% formic acid for 3000 ms desalting. The flow rate of the mobile phase was 1.5 ml/min. Once the samples were eluted from the cartridge, a mobile phase of acetonitrile containing 0.01% formic acid was used to move the samples into the mass spectrometer for 4000 ms at a flow rate of 1.25 ml/min/Sciex API5500 triple quadrupole mass spectrometer (Applied Biosystems) equipped with ESI was used to analyze the peptidyl citrulline and internal standard ions. MRM transition of product and internal standard were monitored at m/z 424.5 to 350.4 and m/z 293 to 247 respectively. The dwell time for each transition was set at 200 ms, and the ESI voltage was used at 5500 with a source temperature of 400° C. Extracted ion peaks for each transition were integrated using the Rapid Fire Integrator software. Peak area of analyte was normalized with internal standard).

Turning to `COc1cc(C(=O)N2C[C@H](N)C[C@@H](F)C2)cc2nc3n(c12)Cc1cncc(c1)-c1ccccc1CCCCn1c-3cc2ccc(C(C)(C)O)nc21` [Example 52, ((3R,5R)-3-Amino-5-fluoropiperidin-1-yl)(1^6-(2-hydroxypropan-2-yl)-2^7-methoxy-1^1H,2^1H-1,2(2,1)-dipyrrolo[2,3-b]pyridina-4(3,5)-pyridina-5(1,2)-benzenacyclononaphane-2^5-yl)methanone], the half-maximal inhibitory concentration (IC50) came to 8 nM.
`COc1cc(C(=O)N2C[C@H]3CC[C@@H]2[C@@H]3N)cc2nc3n(c12)Cc1cncc(c1)-c1ccccc1CCCCn1c-3cc2ccc(C(C)(C)O)nc21` [Example 53, ((1R,4R,7R)-7-Amino-2-azabicyclo[2.2.1]heptan-2-yl)(1^6-(2-hydroxypropan-2-yl)-2^7-methoxy-1^1H,2^1H-1,2(2,1)-dipyrrolo[2,3-b]pyridina-4(3,5)-pyridina-5(1,2)-benzenacyclononaphane-2^5-yl)methanone] had an IC50 of 14 nM.
In turn, “((1R,4R,7R)-7-amino-2-azabicyclo[2.2.1]heptan-2-yl)((cis)-6,7-dihydroxy-2^7-methoxy-1^1H,2^1H-1,2(2,1)-dipyrrolo[2,3-b]pyridina-4(1,3),5(1,2)-dibenzenacyclononaphane-2^5-yl)methanone [Example 39]” displayed an IC50 of 26 nM.
As to “((3R,5R)-3-amino-5- fluoropiperidin-1-yl)((Z)-2^7- methoxy-1^1H,2^1H,4^1H-2(2,1)- benzo[d]imidazola-1(2,1)-indola- 4(4,1)-pyrazolacyclodecaphane- 2^5-yl)methanone [Example 7]”, the IC50 came out at 136 nM.
